Like-named read-outs stand apart in the source and are kept apart here.
Columns and labels:
[1] = test system: human myelomonocytic cell line THP-1; assay: proinflammatory cytokine elaboration from THP-1 cells; type: cell-based; details: for cytokine induction / cytokine stimulation: TNF-α, IL-1β, class symbols; for cytokine stimulation: second table
Protocol: The human myelomonocytic cell line THP-1 (ATCC) was used to evaluate the ability of glycolipids to induce proinflammatory cytokines. Glycolipids were added to cell suspensions of THP-1 as aqueous solutions containing 10% ethanol in water for injection. Prior to the 4 hr inductions, THP-1 cells are pre-incubated overnight with 10^−7 M vitamin D3, washed three times and replated in the presence of MPL®, LPS or the synthetic compounds. After 4 hr coincubating of cells with glycolipids, media containing drug is removed, cells resuspended in fresh media and allowed to rest for 20 hr.

USP rabbit pyrogen test = type: in vivo; details: for pyrogenicity: 2.5 μg dose, class symbols
Excerpt: (§1) In clinical trials with monophosphoryl lipid A, fever was generally the first observed side effect. In clinical studies of various formulations of monophosphoryl lipid A administered intravenously, moderate fever, flu-like symptoms and alterations in blood pressure seem to be side effects that establish maximally tolerated doses. Minimum pyrogenic monophosphoryl lipid A doses, adjusted for body weight, as determined in the USP rabbit pyrogen test agree well with results observed in humans. […] In contrast, monophosphoryl lipid A becomes pyrogenic at intravenous doses of approximately 15 μg/kg (temperature increase of about 0.5° C.).

[2] = test system: iNOS induction in J774 murine macrophages; assay: iNOS induction (nitrite release, Greiss reagent) in IFN-γ primed J774 cells; type: cell-based; details: for iNOS: second table, class symbols
Protocol: The murine macrophage cell line J774 can be primed by IFN-γ in vitro and is very responsive to subsequent LPS stimulation of iNOS upregulation as measured by a standard Greiss reagent ELISA assay procedure. The assay utilizes J774 cells seeded at 1×10^6/mL with 30 mL/flask and with IFN-γ added at 100 units/mL for 16-24 hrs. Cells are then harvested and washed and resuspended at 2×10^5/well in a 96-well plate and allowed to adhere. Glycolipid compounds are serially diluted into the wells for a test group and the resulting cultures are incubated for another 36-40 hrs before culture supernatants are collected from Greiss reagent analysis of nitrite release. Nitrite content closely parallels iNOS function.
Potency was determined as the concentration (ng/mL) of glycolipid in culture capable of inducing one-half maximal induction of nitrite (ED50). The lower the ED50 number, the greater the potency for iNOS induction.

[3] = test system: pig infarct (LAD occlusion); assay: pig infarct study (LAD occlusion), acute cardioprotection; type: in vivo
Protocol: A total of 35 pigs were enrolled in the study: 8 in group 1; 10 in group 2; 7 in group 3, 7 in group 4; and 3 in group 5. When the data were analyzed, infarct size results from the two L-NAME control groups (1 and 3) were combined.

ischemic tissues = details: infusion immediately following bolus dosing
cardiac ischemia [4] = details: rabbits, treated about 24 h before cardiac ischemia
body temperature in dogs = type: in vivo, dog
Excerpt: as §1

body temperature in rats = type: in vivo, rat
cardiac ischemia [5] = details: dogs
Excerpt: Free-radicals produced during reperfusion promote cell death. Free-radical damage to cells results in calcium overload and a decrease in activity of a variety of enzyme systems including, presumably, nitric oxide synthase causing a decrease in nitric oxide production leading to increases in neutrophil adhesion.

[6] = THP-1 cells, not elicited up to this concentration

Structure (SMILES) | cytokine induction [1] | pyrogenicity (USP rabbit pyrogen test) | iNOS [2] | cytokine stimulation [1] | pyrogenicity (USP rabbit pyrogen test; second table) | also measured
CCCCCCCCCCCC(CC(=O)NC1C(O)OC(COC2OC(CO)C(OP(=O)(O)O)C(OC(=O)CC(CCCCCCCCCCC)OC(C)=O)C2NC(=O)CC(CCCCCCCCCCC)OC(C)=O)C(O)C1O)OC(C)=O (centres unmarked) [Compound 5.18] | − (−, not observable at 10 μg/mL) | + (+, from 1-2° C.) |  |  |  | 
CCCCCCCCCCCCCCCC(=O)OC(CCCCCCCCCCC)CC(=O)NC1C(O)OC(COC2OC(CO)C(OP(=O)(O)O)C(OC(=O)CC(CCCCCCCCCCC)OC(=O)CCCCCCCCCCCCC)C2NC(=O)CC(CCCCCCCCCCC)OC(=O)CCCCCCCCCCCCC)C(O)C1O (centres unmarked) [Compound 5.20] | ++ (++, observable @ 1 μg/mL) | − (−<1° C.) |  |  |  | 
CCCCCCCCCCC[C@H](CC(=O)N[C@H]1[C@H](OC[C@H](NC(=O)C[C@@H](CCCCCCCCCCC)OC(=O)CCCCC)C(N)=O)O[C@H](CO)[C@@H](OP(=O)(O)O)[C@@H]1OC(=O)C[C@@H](CCCCCCCCCCC)OC(=O)CCCCC)OC(=O)CCCCC [Compound 5.21] | − (−, not observable at 10 μg/mL) | − (−<1° C.) |  |  |  | 
CCCCCCCCCCC[C@H](CC(=O)NCCO[C@@H]1O[C@H](CO)[C@@H](OP(=O)(O)O)[C@H](OC(=O)C[C@@H](CCCCCCCCCCC)OC(=O)CCCCC)[C@H]1NC(=O)C[C@@H](CCCCCCCCCCC)OC(=O)CCCCC)OC(=O)CCCCC [Compound 5.23] | − (−, not observable at 10 μg/mL) | − (−<1° C.) |  |  |  | 
CCCCCCCCCCCCCC(=O)O[C@H](CCCCCCCCCCC)CC(=O)NCCCO[C@@H]1O[C@H](CO)[C@@H](OP(=O)(O)O)[C@H](OC(=O)C[C@@H](CCCCCCCCCCC)OC(=O)CCCCCCCCCCCCC)[C@H]1NC(=O)C[C@@H](CCCCCCCCCCC)OC(=O)CCCCCCCCCCCCC [Compound 5.25] | ++ (++, observable @ 1 μg/mL) | − (−<1° C.) |  |  |  | 
CCCCCCCCCCCC(CC(=O)N[C@H]1[C@H](OC[C@H](NC(=O)CC(CCCCCCCCCCC)OC(=O)CCCCC)C(=O)O)O[C@H](CO)[C@@H](OP(=O)(O)O)[C@@H]1OC(=O)CC(CCCCCCCCCCC)OC(=O)CCCCC)OC(=O)CCCCC (some centres unmarked) [Compound 5.26] |  |  | − (−>200) | − (−, not observable at 10 μg/mL) | ++ (++>2° C.) | 
CCCCCCCCCCCCCC(=O)O[C@H](CCCCCCCCCCC)CC(=O)NCCO[C@@H]1O[C@H](CO)[C@@H](OP(=O)(O)O)[C@H](OC(=O)C[C@@H](CCCCCCCCCCC)OC(=O)CCCCCCCCCCCCC)[C@H]1NC(=O)C[C@@H](CCCCCCCCCCC)OC(=O)CCCCCCCCCCCCC [Compound 5.29] | ++ (++, observable @ 1 μg/mL) | − (−<1° C.) |  |  |  | 
CCCCCCCCCCCC(CC(=O)NC1C(O)OC(COC2OC(CO)C(OP(=O)(O)O)C(OC(=O)CC(CCCCCCCCCCC)OC(=O)CCCCC)C2NC(=O)CC(CCCCCCCCCCC)OC(=O)CCCCC)C(O)C1O)OC(=O)CCCCC (centres unmarked) [Compound 5.31] | − (−, not observable at 10 μg/mL) | − (−<1° C.) |  |  |  | 
CCCCCCCCCCCC(CC(=O)NC1C(O)OC(COC2OC(CO)C(OP(=O)(O)O)C(OC(=O)CC(CCCCCCCCCCC)OC(=O)CCC)C2NC(=O)CC(CCCCCCCCCCC)OC(=O)CCC)C(O)C1O)OC(=O)CCC (centres unmarked) [Compound 5.32] | − (−, not observable at 10 μg/mL) | ++ (++>2° C.) |  |  |  | 
CCCCCCCCCCCC(CC(=O)N[C@H]1[C@H](OC[C@H](NC(=O)CC(CCCCCCCCCCC)OC(=O)CCCCCC)C(=O)O)O[C@H](CO)[C@@H](OP(=O)(O)O)[C@@H]1OC(=O)CC(CCCCCCCCCCC)OC(=O)CCCCCC)OC(=O)CCCCCC (some centres unmarked) [Compound 5.54] |  |  | − (−>200) | − (−, not observable at 10 μg/mL) | ++ (++>2° C.) | 
CCCCCCCCCCCC(CC(=O)N[C@H]1[C@H](OC[C@H](NC(=O)CC(CCCCCCCCCCC)OC(=O)CCCCCCCCC)C(=O)O)O[C@H](CO)[C@@H](OP(=O)(O)O)[C@@H]1OC(=O)CC(CCCCCCCCCCC)OC(=O)CCCCC)OC(=O)CCCCCCCCC (some centres unmarked) [Compound 5.66] |  |  | ++ (++<80) | − (−, not observable at 10 μg/mL) | ++ (++>2° C.) | 
CCCCCCCCCCCC(CC(=O)N[C@H]1[C@H](OC[C@H](NC(=O)CC(CCCCCCCCCCC)OC(=O)CCCCCCCCC)C(=O)O)O[C@H](CO)[C@@H](OP(=O)(O)O)[C@@H]1OC(=O)CC(CCCCCCCCCCC)OC(=O)CCCCC)OC(=O)CCCCC (some centres unmarked) [Compound 5.67] |  |  | − (−>200) | − (−, not observable at 10 μg/mL) | ++ (++>2° C.) | 
CCCCCCCCCCCC(CC(=O)N[C@H]1[C@H](OC[C@H](NC(=O)CC(CCCCCCCCCCC)OC(=O)CCCCC)C(=O)O)O[C@H](CO)[C@@H](OP(=O)(O)O)[C@@H]1OC(=O)CC(CCCCCCCCCCC)OC(=O)CCCCC)OC(=O)CCCCCCCCC (some centres unmarked) [Compound 5.68] |  |  | − (−>200) | − (−, not observable at 10 μg/mL) | ++ (++>2° C.) | 
COC(=O)[C@@H](N)CCCNC(=N)N[N+](=O)[O-] [L-NAME, Nω-nitro-L-arginine methyl ester, reference compound] |  |  |  |  |  | mean infarct size, L-NAME controls ([3]; pigs, combined group of L-NAME alone and L-NAME+vehicle, 0.5 mg/kg): 36.9±3.7%
CCCCCCCCCCCCCCCCCC(=O)OC(CCCCCCCCCCC)CC(=O)NC1C(OCC2OC(O)C(NC(=O)CC(CCCCCCCCCCC)OC(=O)CCCCCCCCCCCCCCC)C(O)C2O)OC(CO)C(OP(=O)(O)O)C1OC(=O)CC(CCCCCCCCCCC)OC(=O)CCCCCCCCCCCCC (centres unmarked) [RC-552] | − (−, not observable at 10 μg/mL) | − (−<1° C.) |  |  |  | duration of extended acute protective effect (ischemic tissues): at least 3 h; delayed protection (cardiac ischemia [4]): reduced infarct size and stunning; intravenous dose without detectable increase in temperature (body temperature in dogs): > 3 mg/kg; maximal iNOS activity / nitrite elaboration ([2]; J774, IFN-γ primed): very low maximal iNOS activity; intravenous dose without detectable increase in temperature (body temperature in rats): > 3 mg/kg; delayed cardioprotective effect after NOS inhibitor (aminoguanidine or L-NAME) (cardiac ischemia [5]): blocked; delayed protection (cardiac ischemia [5]; treated about 24 h before cardiac ischemia): reduced infarct size and stunning; concentration inducing IL-1B secretion ([1]; THP-1 cells, 4 hr induction): > 10,000 ng/mL; concentration inducing IL-8 elaboration ([1]; THP-1 cells, 4 hr induction): > 10,000 ng/mL; concentration eliciting IL-1 [1, 6]: > 10,000 μg/mL; concentration eliciting IL-8 [1, 6]: > 10,000 μg/mL; concentration inducing TNF secretion ([1]; THP-1 cells, not induced up to this concentration): > 10,000 μg/mL; average temperature increase (USP rabbit pyrogen test; rabbits, i.v. doses up to at least 1,000 μg/kg, 10% ethanol in USP WFI): less than 0.35 °C; mean infarct size ([3]; pigs, 29 μg/kg i.v. bolus 10 minutes prior to ischemia (LAD occlusion), vehicle 28.9±5.0%): 14.2±3.0%; mean infarct size, L-NAME before RC-552 ([3]; pigs, 0.5 mg/kg L-NAME 30 minutes prior to 29 μg/kg RC-552): 40.2±4.4%; reduction of infarct size vs vehicle pretreated pigs ([3]; treated 10 minutes prior to ischemia): 50%

— patent US6699846B2, “Mono- and disaccharides for the treatment of nitric oxide related disorders” (Corixa Corporation, priority 2000, dated 2004)
